Assay results published in patent US11034970B2, “Production of protein from hairy roots of a Brassicaceae plant utilizing rhizobium comprising rol genes” (UNIVERSITE DE PICARDIE JULES VERNE, priority 2015, dated 2021).
Values joined by “and” are separate entries in the source; they are usually repeats but may differ in a detail not shown here. Equal values may be shown once.

Key:
Format in all cases: cell-based, Brassica rapa
[1] = tested on: hairy roots of the clone 2M1; assay: Induction of lateral root emergences on hairy roots, morphology; details: 2,4-D 0.5 mg/l in B53 medium, during the following 7 days
Experimental: (§1) In order to modify the morphology of the hairy roots and prevent the development of the root hairs, roots of the clone 2M1 producing GFP were cultured in B53 liquid medium for two weeks. This culture medium was then removed and replaced with fresh B53 medium containing 2,4-dichlorophenoxyacetic acid (2,4-D), an auxin-type hormone, at 0.5 mg/l.
In order to characterize these conical structures or “lateral root emergences” developing on the roots after hormonal induction, longitudinal sections (FIG. 3) and cross sections (FIG. 4) were produced in the control hairy roots after culture for 2 weeks in B53 medium and in hairy roots having lateral root emergences after culture for 2 weeks in B53 medium with 2,4-D auxin added.
The tissues were fixed in 4% p-formaldehyde overnight at 4° C., dehydrated in baths of ethanol of increasing concentrations, then enclosed in LR White resin. Sections with a thickness of 0.5 to 1 μm were produced using a Leica RM2265 microtome, stained with toluidine blue and observed using a Nikon Eclipse 90i microscope. The images were obtained using a Nikon Digital Sight DS-5Mc device, in visible light or in fluorescence to locate the GFP.

[2] = tested on: hairy roots of the clone LG5; assay: Human gastric lipase activity in the liquid culture medium (4-methylumbelliferyl oleate substrate); details: 2,4-D 1 mg/l
Experimental: For this study, a subculture was carried out in six empty Erlenmeyer flasks, to which 1 g of biomass of the same mass of roots of the clone LG5 and 100 ml of liquid Gamborg B53 medium are added. The roots are cultured at 26° C. and under stirring at 110 rpm for two weeks.
In order to induce the development of lateral root emergences (LRE) in three Erlenmeyer flasks, this liquid medium is replaced with fresh B53 culture medium containing 2,4-dichlorophenoxyacetic acid (2,4-D) at 1 mg/l.
In the other three Erlenmeyer flasks having conventional hairy roots (HR), it is replaced with fresh B53 liquid culture medium, without 2,4-D.
After culture for two weeks at 26° C. with stirring at 110 rpm, a second change of medium was carried out in the flasks in an identical manner, in order to replace the culture medium with a fresh culture medium with +/−2,4-D at 1 mg/l.
The activity of the human gastric lipase is measured directly from the liquid culture media in the 6 flasks (14 days and 28 days after induction). The enzymatic activity is measured at 37° C. using 4-methylumbelliferyl oleate (0.1 mM) as substrate. The fluorescence of the 4-methylumbelliferone (MU), product of the enzyme reaction by the gastric lipase, is measured with a fluorometer (Excitation: 330 nm; Emission: 450 nm). This fluorescence is correlated to the human gastric lipase activity (FIG. 11).

[3] = tested on: hairy roots of the clone 2M1; assay: Test 3: GFP concentration in the culture medium after culture for 21 days (Petri dishes); details: 2,4-D 1 mg/l
Experimental: (§2) For the quantification of 6× His-EGFP, culture medium was diluted to 20× or 40× in a 50 mM tris buffer at pH 7.5. The fluorescence of the solution was measured using the BioRad VersaFluor™ fluorometer (excitation filter 485-495 nm; emission filter 505-515 nm). The calibration of the fluorometer was carried out using the commercially available recombinant 6× His-EGFP (BioVision) at a concentration of 10 mg/l.
Roots of the clone 2M1 were inoculated in 14 Petri dishes, each containing 5 ml of liquid B53 culture medium. They were cultured at 26° C. under stirring at 110 rpm for 17 days.
The medium was then changed in the Petri dishes as follows: • in seven Petri dishes, the medium was removed and replaced with fresh B53 culture medium with 2,4-D added at 1 mg/l (LRE 1 to 7) in order to induce the development of lateral root emergences in these dishes; • and in the other seven Petri dishes, the medium was removed and replaced with fresh B53 culture medium (Controls 1 to 7).
The roots were maintained at 26° C. under stirring at 110 rpm for 21 days.

[4] = tested on: hairy roots of the clone 2M1; assay: Test 2: GFP secreted in the culture medium, Erlenmeyer flasks, two renewals of medium; details: 2,4-D 1 mg/l, first change of medium
Experimental: as §2
The clone 2M1 was inoculated at t0 into 5 Erlenmeyer flasks at a rate of 2 g of fresh roots in 100 ml of B53 medium. After culture at 26° C. with a stirrer at 110 rpm for 15 days, the roots have reached a mass of 24.4 g+/−3.90.
A first change of medium was then carried out in each of the flasks as follows; • in two flasks, the B53 medium was replaced with fresh B53 medium in order to carry out two repetitions for the control hairy roots; • in three flasks, the B53 medium was replaced with B53 medium with 2,4-D added at 1 mg/l in order to carry out three repetitions for inducing the development of lateral root emergences;
The GFP secreted in the culture medium was quantified 7 to 14 days after this first change of medium.
A second change of medium was then carried out in these same flasks, in an identical manner:
in the two flasks of control hairy roots. the B53 medium was replaced with fresh B53 medium; […]

[5] = tested on: hairy roots of the clone 2M1; assay: Test 1: quantification by fluorometry of GFP secreted in the culture medium (Petri dishes)
Experimental: as §1, §2
After culture of hairy roots of the clone 2M1 in B53 liquid medium for two weeks, this medium was replaced with fresh B53 medium containing 2,4-D auxin at 0.5 mg/l, in order to induce the development of lateral root emergences. The hairy roots of the clone 2M1 were thus cultured in Petri dishes containing 5 ml of B53 medium with 2,4-D added, at 23° C. and under stirring at 56 rpm.
The GFP secreted in the culture medium by the hairy roots having lateral root emergences, was quantified (10 repetitions) one and two weeks after the addition of 2,4-D auxin at 0.5 mg/l (Table 2).
Hairy roots of the clone 2M1 were cultured (9 repetitions) under the same conditions changing the B53 medium with fresh B53 medium but without the addition of auxin after culture for the first two weeks, in order to constitute control batches of hairy roots.

[6] = lateral root emergences (LRE), 37° C., 3 flasks

**Q.** What does the source list for O=C(O)COc1ccc(Cl)cc1Cl [2,4-D, 2,4-dichlorophenoxyacetic acid]?
**A.** morphology of the hairy roots after hormonal induction [1]: Numerous conical structures called “lateral root emergences” (LRE) then developed on the hairy roots; activity of the human gastric lipase, times greater than conventional hairy roots (HR) ([2]; LRE versus HR): approximately 3; activity of the human gastric lipase in the culture medium at 14 days [2, 6]: 16 ± 0.6 pmol/min; activity of the human gastric lipase in the culture medium at 28 days [2, 6]: 45 ± 0.3 pmol/min; concentration of GFP in the medium after 21 days ([3]; 7 Petri dishes, roots with lateral root emergences): 597 mg/L; concentration of GFP in the medium, times greater than control hairy roots ([3]; after 21 days): 4.3; secretion of GFP versus control cultures after treatment for 14 days [4]: doubled; GFP in the culture medium versus control hairy roots (Student's test) ([5]; 2,4-D 0.5 mg/l versus medium without 2,4-D): significant difference; GFP in the culture medium, 2 weeks after B53 + 2,4-D, average ([5]; average of 10 Petri dishes (n=10), 2,4-D 0.5 mg/l): 164 ± 10.3 mg/L and 164 mg/L; GFP in the culture medium, 1 week after B53 + 2,4-D, average ([5]; average of 10 Petri dishes, 2,4-D 0.5 mg/l): 52 mg/L
